Measurements published in patent US11795177B2, “Substituted quinoline analogs as aldehyde dehydrogenase 1A1 (ALDH1A1) inhibitors” (THE UNITED STATES OF AMERICA, AS REPRESENTED BY THE …, priority 2017, dated 2023).
Where a name gives a salt, the structure may show the parent alone.

Experiments:
MIA PaCa-2 cells = assay: MIA PaCa2 cell-based assay (1,536-well high-content imaging ALDEFLUOR assay); set-up: species or system human; conditions: Homo sapiens, 0.5 h, ALDEFLUOR BAAA substrate 500 nM, 30 minutes
In short: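 MIA PaCa-2 cells (1,000/well), plated overnight, given BAAA substrate (500 nM) plus Hoechst 33342 (0.5 nM), then compound (16-point, 1.4 nM–47.8 μM final; 0.5% DMSO). After 30 min at 37° C, ALDH activity imaged by high-content microscopy as BAA-retaining (FITC) cells versus Hoechst-stained nuclei.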

ALDH1A1 enzyme = target: T1, ALDH1A1 enzyme (Homo sapiens, UniProt P00352); assay: ALDH1A1 enzymatic assay (in vitro); assay type: biochemical; conditions: ALDH1A1 enzyme 20 nM, NAD+ 1 mM, propionaldehyde 80 μM; read-out: ALDH1A1 IC50
T1 sequence (P00352 1-501): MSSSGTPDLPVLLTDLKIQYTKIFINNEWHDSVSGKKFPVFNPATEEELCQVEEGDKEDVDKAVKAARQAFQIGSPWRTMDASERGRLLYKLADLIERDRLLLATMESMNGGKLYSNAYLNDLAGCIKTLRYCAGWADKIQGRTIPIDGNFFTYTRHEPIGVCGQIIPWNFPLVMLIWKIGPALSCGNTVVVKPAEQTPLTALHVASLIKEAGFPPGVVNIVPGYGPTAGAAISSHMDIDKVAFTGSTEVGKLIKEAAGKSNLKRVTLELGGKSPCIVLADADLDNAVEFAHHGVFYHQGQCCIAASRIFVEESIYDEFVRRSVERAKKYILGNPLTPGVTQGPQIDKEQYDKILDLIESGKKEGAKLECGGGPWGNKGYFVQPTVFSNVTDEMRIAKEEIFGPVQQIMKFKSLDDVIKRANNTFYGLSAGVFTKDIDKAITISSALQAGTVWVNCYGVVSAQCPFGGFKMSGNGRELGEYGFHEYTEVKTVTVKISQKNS
In short: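 ALDH1A1 (20 nM final) in 100 mM HEPES pH 7.5, 0.01% Tween 20 was preincubated 15 min at RT with compound (968 pM–57.2 μM final), then started with 1 mM NAD+ and 80 μM propionaldehyde. NADH fluorescence (ex 340/em 450 nm) followed kinetically for 10 min; change normalized to no-inhibitor and no-enzyme controls for percent inhibition and curve fitting.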

Row | Compound | IC50 (MIA PaCa-2 cells) [nM] | IC50 (ALDH1A1 enzyme) [nM]
1 | CC1(C#N)CCN(c2c(C(=O)N3CCN(S(C)(=O)=O)CC3)cnc3c(F)cc(F)cc23)CC1 [Example 135, 1-(6,8-difluoro-3-(4-(methylsulfonyl)piperazine-1-carbonyl)quinolin-4-yl)-4-methylpiperidine-4-carbonitrile] | 1000 to 10000 | < 500
2 | N#CC1(c2ccccc2)CCN(c2c(C(=O)N3CCC(O)CC3)cnc3ccc(F)cc23)CC1 [Cpd. 331, 1-(6-fluoro-3-(4-hydroxypiperidine-1-carbonyl)quinolin-4-yl)-4-phenylpiperidine-4-carbonitrile] | 500 to 1000 | < 500
3 | CCN(CC)C(=O)N1CCN(C(=O)c2cnc3cc(F)c(F)cc3c2N2CCC3(CC2)OCCO3)CC1 [Example 169, 4-(6,7-difluoro-4-(1,4-dioxa-8-azasprio[4.5]decan-8-yl)quinoline-3-carbonyl)-N,N-diethylpiperazine-1-carboxamide] | 1000 to 10000 | < 500
4 | CCS(=O)(=O)N1CCN(C(=O)c2cnc3cc(F)c(F)cc3c2N2CCC3(CC2)OCCO3)CC1 [Example 171, (6,7-difluoro-4-(1,4-dioxa-8-azaspiro[4.5]decan-8-yl)quinolin-3-yl)(4-(ethylsulfonyl)piperazin-1-yl)methanone] | 1000 to 10000 | < 500
5 | CS(=O)(=O)C1CCN(C(=O)c2cnc3cc(F)c(F)cc3c2N2CCC3(CC2)OCCO3)CC1 [Example 187, (6,7-difluoro-4-(1,4-dioxa-8-azaspiro[4.5]decan-8-yl)quinolin-3-yl)(4-(methylsulfonyl)piperidin-1-yl)methanone] | 1000 to 10000 | < 500
6 | N#CC1(O)CCN(C(=O)c2cnc3ccc(F)cc3c2N2CCC(C#N)(c3ccccc3)CC2)CC1 [Cpd. 341, 1-(3-(4-cyano-4-hydroxypiperidine-1-carbonyl)-6-fluoroquinolin-4-yl)-4-phenylpiperidine-4-carbonitrile] | 500 to 1000 | < 500
7 | CS(=O)(=O)C1CCN(C(=O)c2cnc3ccc(Cl)cc3c2N2CCC(C#N)(c3ccccc3)CC2)CC1 [Cpd. 310, 1-(6-chloro-3-(4-(methylsulfonyl)piperidine-1-carbonyl)quinolin-4-yl)-4-phenylpiperidine-4-carbonitrile] | < 500 | < 500
8 | CS(=O)(=O)C1CCN(C(=O)c2cnc3ccc(F)cc3c2N2CCC3(CC2)OCCO3)CC1 [Example 185, (6-fluoro-4-(1,4-dioxa-8-azaspiro[4.5]decan-8-yl)quinolin-3-yl)(4-(methylsulfonyl)piperidin-1-yl)methanone] | 1000 to 10000 | < 500
9 | CS(=O)(=O)N1CCN(C(=O)c2cnc3ccc(F)cc3c2N2CCC(C#N)(CC3CC3)CC2)CC1 [Example 243, 4-(cyclopropylmethyl)-1-(6-fluoro-3-(4-(methylsulfonyl)piperazine-1-carbonyl)quinolin-4-yl)piperidine-4-carbonitrile] | < 500 | < 500
10 | C[C@H]1CN(C(=O)C2CC2)CCN1C(=O)c1cnc2ccc(F)cc2c1N1CCC(C)(C#N)CC1 [Example 238, (s)-1-(3-(4-(cyclopropanecarbonyl)-2-methylpiperazine-1-carbonyl)-6-fluoroquinolin-4-yl)-4-methylpiperidine-4-carbonitrile] | > 10000 | 1000 to 10000
11 | CC1(O)CCN(C(=O)c2cnc3ccc(F)cc3c2-c2ccc(C3(C#N)CC3)cc2)CC1 [Cpd. 350, 1-(4-(6-fluoro-3-(4-hydroxy-4-methylpiperidine-1-carbonyl)quinolin-4-yl)phenyl)cyclopropane-1-carbonitrile] | 1000 to 10000 | < 500
12 | CCC(=O)N1CCN(C(=O)c2cnc3cc(OC)c(OC)cc3c2N2CCC(C)(C#N)CC2)CC1 [Example 110, 1-(6,7-dimethoxy-3-(4-propionylpiperazine-1-carbonyl)quinolin-4-yl)-4-methylpiperidine-4-carbonitrile] | 1000 to 10000 | < 500
13 | CCNC(=O)N1CCN(C(=O)c2cnc3c(F)c(OC)c(F)cc3c2N2CCC3(CC2)OCCO3)CC1 [Example 143, 4-(6,8-difluoro-7-methoxy-4-(1,4-dioxa-8-azaspiro[4.5]decan-8-yl)quinoline-3-carbonyl)-N-ethylpiperazine-1-carboxamide] | 1000 to 10000 | < 500
14 | CC(=O)C1(c2ccccc2)CCN(c2c(C(=O)N3CCN(S(=O)(=O)N(C)C)CC3)cnc3ccc(F)cc23)CC1 [Example 268, 4-(4-(4-acetyl-4-phenylpiperidin-1-yl)-6-fluoroquinoline-3-carbonyl)-N,N-dimethylpiperazine-1-sulfonamide] | < 500 | < 500

The next lines start with the values.

Row | IC50 (MIA PaCa-2 cells) [nM] | IC50 (ALDH1A1 enzyme) [nM] | Compound
15 | > 10000 | < 500 | COc1ccc2ncc(C(=O)N3CCN(C(=O)C4CC4)CC3)c(N3CCC4(CCCO4)CC3)c2c1 [Example 24, (4-(cyclopropanecarbonyl)piperazin-1-yl)(6-methoxy-4-(1-oxa-8-azaspiro[4.5]decan-8-yl)quinolin-3-yl)methanone]
16 | < 500 | < 500 | CN(C)C(=O)N1CCN(C(=O)c2cnc3ccsc3c2N2CCC(C#N)(c3ccccc3)CC2)CC1 [Example 289, 4-(7-(4-cyano-4-phenylpiperidin-1-yl)thieno[3,2-b]pyridine-6-carbonyl)-N,N-dimethylpiperazine-1-carboxamide]
17 | < 500 | < 500 | CS(=O)(=O)C1CCN(C(=O)c2cnc3ccc(F)cc3c2-c2ccc(C3(C#N)CC3)cc2)CC1 [Example 266, 1-(4-(6-fluoro-3-(4-(methylsulfonyl)piperidine-1-carbonyl)quinolin-4-yl)phenyl)cyclopropanecarbonitrile]
18 | 1000 to 10000 | < 500 | CCS(=O)(=O)N1CCN(C(=O)c2cnc3c(cnn3C)c2N2CCC(C)(C#N)CC2)CC1 [Example 207, 1-(5-(4-(ethylsulfonyl)piperazine-1-carbonyl)-1-methyl-1H-pyrazolo[3,4-b]pyridin-4-yl)-4-methylpiperidine-4-carbonitrile]
19 | 1000 to 10000 | < 500 | CCC(=O)N1CCN(C(=O)c2cnc3ccc(OC)cc3c2N2CCC3(CC2)OCCO3)CC1 [Example 6, 1-(4-(6-methoxy-4-(1,4-dioxa-8-azaspiro[4.5]decan-8-yl)quinoline-3-carbonyl)piperazin-1-yl)propan-1-one, TFA]
20 | > 10000 | < 500 | O=C(c1cnc2c(F)cc(F)cc2c1N1CCC2(CC1)OCCO2)N1CCN(C(=O)N2CCCC2)CC1 [Example 160, (6,8-difluoro-4-(1,4-dioxa-8-azaspiro[4.5]decan-8-yl)quinolin-3-yl)(4-(pyrrolidine-1-carbonyl)piperazin-1-yl)methanone]
21 | > 10000 | 500 to 1000 | O=C(c1cnc2ccc(F)cc2c1N1CCC2(CC1)OCCO2)N1CCOCC1 [Example 58, (6-fluoro-4-(1,4-dioxa-8-azaspiro[4.5]decan-8-yl)quinolin-3-yl)(morpholino)methanone]
22 | 1000 to 10000 | 1000 to 10000 | O=C1CC2(CCN(c3c(C(=O)N4CCN(C(=O)C5CC5)CC4)cnc4ccc(F)cc34)CC2)c2ccccc21 [Example 203, 1′-(3-(4-(cyclopropanecarbonyl)piperazine-1-carbonyl)-6-fluoroquinolin-4-yl)spiro[indene-1,4′-piperidin]-3(2H)-one]
23 | > 10000 | < 500 | CS(=O)(=O)N1CCN(C(=O)c2cnc3ccc(F)cc3c2N2CCN(C(=O)/C(C#N)=C/C3CC3)CC2)CC1 [Example 222, (e)-3-cyclopropyl-2-(4-(6-fluoro-3-(4-(methylsulfonyl)piperazine-1-carbonyl)quinolin-4-yl)piperazine-1-carbonyl)acrylonitrile]
24 | 1000 to 10000 | < 500 | COc1cc2ncc(C(=O)N3CCN(S(C)(=O)=O)CC3)c(N3CCC4(CC3)OCCO4)c2cc1OC [Example 130, (6,7-dimethoxy-4-(1,4-dioxa-8-azaspiro[4.5]decan-8-yl)quinolin-3-yl)(4-(methylsulfonyl)piperazin-1-yl)methanone]
25 | 1000 to 10000 | < 500 | N#CC1(c2ccc(-c3c(C(=O)N4CCC(O)(CO)CC4)cnc4ccc(F)cc34)cc2)CC1 [Cpd. 354, 1-(4-(6-fluoro-3-(4-hydroxy-4-(hydroxymethyl)piperidine-1-carbonyl)quinolin-4-yl)phenyl)cyclopropane-1-carbonitrile]
26 | 1000 to 10000 | < 500 | CC1(C#N)CCN(c2c(C(=O)N3CCN(S(C)(=O)=O)CC3)cnc3c(F)c(F)c(F)cc23)CC1 [Example 138, 4-methyl-1-(6,7,8-trifluoro-3-(4-(methylsulfonyl)piperazine-1-carbonyl)quinolin-4-yl)piperidine-4-carbonitrile]
